In paper PMC2966039 (Journal of Medicinal Chemistry, 2009):

Legend:
[1] = molecular target: T1, TbPTR1 (Trypanosoma brucei brucei, UniProt O76290); experiment: TbPTR1 activity assay; type: biochemical; conditions: for Hill slope: averaged over at least two independent measurements; for ligand efficiency: from Ki^app
T1 sequence (O76290 1-268): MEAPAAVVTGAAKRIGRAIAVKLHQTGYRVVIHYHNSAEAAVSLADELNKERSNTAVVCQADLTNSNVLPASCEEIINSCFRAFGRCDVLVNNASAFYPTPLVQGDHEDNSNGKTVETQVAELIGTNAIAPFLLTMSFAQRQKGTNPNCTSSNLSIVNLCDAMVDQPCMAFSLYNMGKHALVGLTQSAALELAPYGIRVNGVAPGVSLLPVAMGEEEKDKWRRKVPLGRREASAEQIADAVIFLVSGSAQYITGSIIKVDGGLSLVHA

[2] = molecular target: LmPTR1; conditions: cited from earlier work

Hill slope [1]	ligand efficiency [1] [kcal mol^−1/heavy atom]	SMILES	also measured
1.1		Cc1cccc(-c2ccc3nc(N)[nH]c3c2)c1 [Compound 6]	
		Cc1cnc2nc(N)nc(N)c2n1 [6-methylpteridine-2,4-diamine]	inhibition constants [2]: low micromolar range
		CCCOc1cccc2nc(N)n(Cc3ccc(Cl)c(Cl)c3)c12 [Compound 11, 7-(n-Propyloxy)-1-(3,4-dichlorobenzyl)-1H-benzo[d]imidazol-2-amine]	increase in potency ([1]; compared to the 7-chloro derivative 10): 10 fold
1.0		Nc1nc2cccc(Cl)c2n1Cc1ccc(Cl)c(Cl)c1 [Compound 10, 7-Chloro-1-(3,4-dichlorobenzyl)-1H-benzo[d]imidazol-2-amine]	
0.6	0.29	Nc1nc2ccc(C(=O)N3CCCCC3)cc2s1 [Compound 3]	
0.9	0.62	Nc1nc2ccc(Cl)cc2[nH]1 [Compound 4, 2-Amino-6-chloro-benzimidazole]	
0.7		Nc1nc2ccccc2n1Cc1ccc(Cl)c(Cl)c1 [Compound 9, 1-(3,4-dichloro-benzyl)-2-amino-benzimidazole]	increase in affinity ([1]; compared to the virtual screening hit (4)): more than 20 fold
0.7		Nc1nc2cccc(-c3ccccc3)c2n1Cc1ccc(Cl)c(Cl)c1 [Compound 12, 7-Phenyl-1-(3,4-dichlorobenzyl)-1H-benzo[d]imidazol-2-amine]	
0.9		Nc1nc2ccccc2[nH]1 [Compound 5, 2-amino-benzimidazole]	drop in affinity ([1]; compared to 4): more than 20 fold
0.6	0.46	COC(=O)c1ccc2nc(N)sc2c1 [Compound 2]	
